{"source": "patent US8106024B2", "about": "“Method of treating cancer with an RPN2 gene expression inhibitor” (Taisho Pharmaceutical Co., Ltd., priority 2006, dated 2012)", "key": {"PC-9/CDDP cell": {"system": "PC-9/CDDP cell", "assay": "Caspase activity in cisplatin-resistant lung cancer cells", "assay_type": "cell-based, human", "details": "3 days", "experimental": "(§1) A reagent for measurement of apoptosis was added to the plate after the measurement of the luciferase activity in Test Example 1, and the Caspase activity was measured. […] The Caspase activation rate was calculated with the control siRNA as 0%.\nTo suppress RPN2 gene expression RPN2 siRNA was transduced into PC-9/CDDP cell which is a cell line of human lung cancer ([…], differentiated gland cancer), and resistant to cisplatin (Cis) that is a anti-cancer drug. Then, the cell was cultured for 3 days in the presence of or in the absence of cisplatin (0.3 μM). Then, Caspase activity was measured in the same way as described in Test Example 2. In addition, for comparison, the same test was conducted also for the system to which control siRNA not suppressing any gene expression was introduced."}, "Luciferase gene (GL3)": {"system": "Luciferase gene (GL3)", "assay": "siRNA introduction efficiency (suppression of luciferase activity)", "assay_type": "cell-based", "details": "MCF7-ADR-Luc, atelocollagen transfection array", "experimental": "Luciferase gene (GL3) was stably transfected into multidrug-resistant MCF7-ADR cells of which the parental Cell line is MCF7 breast cancer cell. The cell line was expressing luciferase and designated as MCF7-ADR-Luc.\nThe MCF7-ADR-LUC cell obtained in (2) was inoculated into the array prepared in (1) in 4×10^3 cell number/well, and cultured for 3 days in the presence of 1 nM docetaxel (DOC). To the live cells were added luciferin, and from the luminescence value, cell growth inhibition rate and luciferase siRNA introduction efficiency were measured.\nMoreover, siRNA introduction efficiency was evaluated with the suppression rate of the luciferase activity by introduction of luciferase siRNA (GL3siRNA: dsRNA including a sense chain of Sequence No. 7 and an antisense chain of Sequence No. 8), separately from siRNA corresponding to each gene. In addition, luciferin (0.5 mM final concentration: Promega KK) was added to the medium, and the luciferase activity was measured immediately by a luminescence plate reader (ARVO: PerkinElmer, Inc.). Introduction of GL3 siRNA suppressed the luciferase activity by 80% in comparison with the control siRNA."}, "MCF7-ADR-Luc cells [1]": {"system": "MCF7-ADR-Luc cells", "assay": "Apoptosis induction test, Caspase-3/7 activity", "assay_type": "cell-based", "details": "3 days", "experimental": "as §1\nAfter 3 days, Caspase activity was measured in the same way as described in Test Example 2."}, "MCF7-ADR-Luc cells [2]": {"system": "MCF7-ADR-Luc cells", "assay": "Apoptosis induction test, Hoechst staining", "assay_type": "cell-based", "details": "vs control siRNA", "experimental": "Moreover, in addition to the Caspase activity, apoptosis induction was investigated with observation by Hoechst staining (the cells were washed with PBS (−), added with 4% PFA-0.1% Triton X-100-1 mg/ml Hoechst 33342/in PBS (−), and fixed and stained at room temperature for 20 minutes. The cells were washed with PBS (−), and then observed under fluorescence microscope.)."}, "RPN2 gene [3]": {"system": "RPN2 gene", "assay": "RPN2 gene expression suppression test (real-time PCR)", "assay_type": "cell-based", "details": "MCF7-ADR-Luc, 3 days, atelocollagen transfection array; remaining expression", "experimental": "Into the atelocollagen cell transfection array prepared in Test Example 1 (1) were inoculated MCF7-ADR-Luc cells. After 3 days, cDNA was synthesized directly from the cell lysate, and real-time PCR was conducted, to investigate the RPN2 gene expression amount (SuperScript III Platinum CellsDirect Two-Step qRT-PCR: Invitrogen)."}, "MCF7-ADR-Luc cells [4]": {"system": "MCF7-ADR-Luc cells", "assay": "Tumor growth test in a nude mouse", "assay_type": "in vivo", "details": "1 nmol siRNA/atelocollagen per tumor intratumoral + 20 mg/kg docetaxel i.p., 7 days after dosing, vs control siRNA", "experimental": "According to the protocol shown in FIG. 6, 1×10^7 MCF7-ADR-Luc cells suspended in 100 μl PBS (−) were transplanted into the mammary fat pad of the nude mouse (4 weeks old, scalpel). After 7 days when the tumor radius reached about 5 mm, siRNA and DOC were administered. Herein, atelocollagen in the final concentration of 5 mg/ml (w/vol) and siRNA in 1 nmol per tumor were mixed, and then 200 μl of atelocollagen (manufactured by KOKEN CO., LTD.)/siRNA was administered into the tumor. At the same time, 20 mg/kg of docetaxel was administered into the abdominal cavity. After 7 days, the tumor radius was measured to compare the tumor volumes."}, "RPN2 gene [5]": {"system": "RPN2 gene", "assay": "RPN2 gene expression suppression test in a nude mouse (real-time RT-PCR of tumor)", "assay_type": "in vivo", "details": "1 nmol siRNA/atelocollagen per tumor + 20 mg/kg docetaxel, tumor collected after 1 day", "experimental": "1×10^7 MCF7-ADR-Luc cells suspended in 100 μl PBS (−) were transplanted into the mammary fat pad of the nude mouse (4 weeks old, scalpel). After 7 days, RPN2 siRNA and DOC were administered. Herein, atelocollagen in the final concentration of 5 mg/ml (w/vol) and RPN2 siRNA in 1 nmol per tumor were mixed, and then 200 μl of atelocollagen/siRNA was administered into the tumor. At the same time, 20 mg/kg of docetaxel was administered into the abdominal cavity. After 1 day, the tumor was collected and the total RNA was isolated, and RPN2 gene expression amount was measured with real-time RT-PCR (SYBR ExScript RT-PCR Kit: TaKaRa, LightCycler Real-Time PCR System: F. Hoffmann-La Roche Ltd.).\nThe RPN2 gene expression amount was measured in the same method as Test Example 5 except that RPN2 siRNA and DOC were administered at 6 weeks after MCF7-ADR-Luc cells were transplanted into the mammary fat pad of the nude mouse (4 weeks old, scalpel)."}, "MCF7-ADR-Luc cells [6]": {"system": "MCF7-ADR-Luc cells", "assay": "Apoptosis induction test in a nude mouse (TUNEL staining)", "assay_type": "in vivo", "details": "dosed 6 weeks after transplant; siRNA/atelocollagen intratumoral + 20 mg/kg docetaxel; tumor collected after 4 days", "experimental": "1×10^7 MCF7-ADR-Luc cells suspended in 100 μl PBS (−) were transplanted into the mammary fat pad of the nude mouse (4 weeks old, scalpel). After 6 weeks, siRNA and DOC, or siRNA alone was administered. Atelocollagen in the final concentration of 5 mg/ml (w/vol) and siRNA in 1 nmol per tumor were mixed, and then 200 μl of atelocollagen/siRNA was administered into the tumor. At the same time, 20 mg/kg of docetaxel was administered into the abdominal cavity. After 4 days, the tumor was collected, and subjected to TUNEL staining (In Situ Cell Death Detection Kit: F. Hoffmann-La Roche Ltd.). The nucleus was subjected to counter staining with DAPI (4′,6-diamidino-2-phenylindole)."}, "HepG2": {"system": "HepG2", "assay": "Cell survival in human liver cancer cells (CellTiter-Glo)", "assay_type": "cell-based", "experimental": "HepG2, which is a cell line of human liver cancer, was inoculated into a 96 well plate in 5000/well. […] The control siRNA (dsRNA including a sense chain of Sequence No. 5 and an antisense chain of Sequence No. 6) was introduced as the negative control. At the same time with the siRNA, DOC was added in 1 nM of the final concentration. After the culture for 3 days, in order to determine the cell survival rate in each well, a quantification reagent for the live cells (CellTiter-Glo substrate: Promega KK) was added to each well, and the plate was stirred for 2 minutes, and left for 10 minutes. The luminescence was measured by a luminescence plate reader (ARVO: PerkinElmer)."}}}
{"compound": "N.N.[Cl][Pt][Cl]", "note": "[cisplatin, reference compound]", "values": [{"measurement": "Caspase activity, Cis+ versus Cis−", "setting": "PC-9/CDDP cell; control siRNA system, cisplatin 0.3 μM", "result": "no difference"}]}
{"compound": "GL3 siRNA: luciferase siRNA: dsRNA including a sense chain of Sequence No. 7 and an antisense chain of Sequence No. 8 (sense CUUACGCUGAGUACUUCGANN; antisense UCGAAGUACUCAGCGUAAGNN; chemistry not given here; listed as Homo sapiens)", "values": [{"measurement": "suppression of luciferase activity in comparison with the control siRNA", "setting": "Luciferase gene (GL3)", "result": 80, "unit": "%"}]}
{"compound": "RPN2 siRNA: dsRNA including a sense chain of Sequence No. 3 and an antisense chain of Sequence No. 4 (sense GGCCACUGUUAAACUAGAACA; antisense UUCUAGUUUAACAGUGGCCUG; listed as RNA, chemistry not given here; listed as Homo sapiens)", "values": [{"measurement": "Caspase activity", "setting": "MCF7-ADR-Luc cells [1]; 1 nM docetaxel, vs control siRNA", "result": "induced strongly"}, {"measurement": "Caspase activity (apoptosis)", "setting": "MCF7-ADR-Luc cells [1]; in the absence of DOC", "result": "apoptosis is induced"}, {"measurement": "nucleus morphology by Hoechst staining (aggregation, fragmentation)", "setting": "MCF7-ADR-Luc cells [2]", "result": "apoptosis is induced"}, {"measurement": "RPN2 gene expression suppressed to", "setting": "RPN2 gene [3]", "result": "about 25%"}, {"measurement": "tumor volume", "setting": "MCF7-ADR-Luc cells [4]", "result": "significant tumor shrinkage"}, {"measurement": "RPN2 gene expression suppressed by, in comparison with control siRNA group", "setting": "RPN2 gene [5]; dosed 6 weeks after transplant", "result": "about 40%"}, {"measurement": "RPN2 gene expression suppressed by, in comparison with control siRNA group", "setting": "RPN2 gene [5]; dosed 7 days after transplant", "result": "about 20%"}, {"measurement": "apoptosis cells in tumor (TUNEL staining)", "setting": "MCF7-ADR-Luc cells [6]", "result": "many apoptosis cells were found"}, {"measurement": "Caspase activity (apoptosis)", "setting": "PC-9/CDDP cell; cisplatin-treated (0.3 μM, Cis+)", "result": "significant apoptosis was induced"}, {"measurement": "Caspase activity (apoptosis increase)", "setting": "PC-9/CDDP cell; cisplatin-untreated (Cis−)", "result": "slight"}, {"measurement": "cancer cell growth suppression (luminescence intensity, RLU)", "setting": "HepG2; HepG2, siRNA alone, Lipofectamine 2000, 3 days", "result": "showed cancer cell growth suppression effects alone"}, {"measurement": "cancer cell growth suppression (luminescence intensity, RLU)", "setting": "HepG2; HepG2, siRNA with 1 nM DOC, 3 days", "result": "potentiating the cancer cell growth suppression effects of DOC"}]}
